Results published in PubChem BioAssay (NCI).
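Abbreviation: GI50, concentration required for 50% inhibition of growth. TGI: concentration producing complete growth inhibition.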

Columns and labels:
Experiment in all cases: NCI-60 cell line screen, 384-well format
SK-MEL-28 melanoma = test system: SK-MEL-28 melanoma
NCI-H226 lung = test system: NCI-H226 lung
UACC-257 melanoma = test system: UACC-257 melanoma
OVCAR-5 ovarian = test system: OVCAR-5 ovarian
UACC-62 melanoma = test system: UACC-62 melanoma
MDA-MB-435 melanoma = test system: MDA-MB-435 melanoma
SN12C renal = test system: SN12C renal
HT29 colon = test system: HT29 colon
KM12 colon = test system: KM12 colon
NCI/ADR-RES ovarian = test system: NCI/ADR-RES ovarian
NCI-H460 NSCLC = test system: NCI-H460 NSCLC
PC-3 prostate = test system: PC-3 prostate
DU-145 prostate = test system: DU-145 prostate
M14 melanoma = test system: M14 melanoma
EKVX NSCLC = test system: EKVX NSCLC
MCF7 breast = test system: MCF7 breast
MDA-MB-468 breast = test system: MDA-MB-468 breast
SNB-75 CNS = test system: SNB-75 CNS
HCC-2998 colon = test system: HCC-2998 colon
SW-620 colon = test system: SW-620 colon
SR leukemia = test system: SR leukemia
COLO 205 colon = test system: COLO 205 colon
MALME-3M melanoma = test system: MALME-3M melanoma
TK-10 renal = test system: TK-10 renal
RXF 393 renal = test system: RXF 393 renal
BT-549 breast = test system: BT-549 breast
SK-MEL-2 melanoma = test system: SK-MEL-2 melanoma
U251 glioblastoma = test system: U251 glioblastoma
HOP-62 NSCLC = test system: HOP-62 NSCLC
HOP-92 NSCLC = test system: HOP-92 NSCLC
MDA-MB-231 breast = test system: MDA-MB-231 breast
A549 NSCLC = test system: A549 NSCLC
IGROV1 ovarian = test system: IGROV1 ovarian
SK-OV-3 ovarian = test system: SK-OV-3 ovarian
SF-295 CNS = test system: SF-295 CNS
T-47D breast = test system: T-47D breast
HCT-15 colon = test system: HCT-15 colon
CAKI-1 renal = test system: CAKI-1 renal
MOLT-4 leukemia = test system: MOLT-4 leukemia
SNB-19 CNS = test system: SNB-19 CNS
CCRF-CEM leukemia = test system: CCRF-CEM leukemia
RPMI-8226 leukemia = test system: RPMI-8226 leukemia
NCI-H23 lung = test system: NCI-H23 lung
NCI-H522 lung = test system: NCI-H522 lung
HL-60(TB) leukemia = test system: HL-60(TB) leukemia
SF-268 CNS = test system: SF-268 CNS
SF-539 CNS = test system: SF-539 CNS
OVCAR-8 ovarian = test system: OVCAR-8 ovarian
A498 renal = test system: A498 renal
786-0 renal = test system: 786-0 renal
OVCAR-3 ovarian = test system: OVCAR-3 ovarian
ACHN renal = test system: ACHN renal
OVCAR-4 ovarian = test system: OVCAR-4 ovarian
HS 578T breast = test system: HS 578T breast
SK-MEL-5 melanoma = test system: SK-MEL-5 melanoma
NCI-H322M lung = test system: NCI-H322M lung

For `Cc1[nH]c(/C=C2\C(=O)Nc3ccccc32)c(C)c1CCC(=O)O`, which GI50 (SK-MEL-28 melanoma) is on record?
The GI50 was 23.1 µM.

And the TGI (SK-MEL-28 melanoma)?
Its TGI is 52.6 µM.

What about the GI50 (NCI-H226 lung) of the same molecule?
The GI50 was 15.3 µM.

And the TGI (NCI-H226 lung)?
The TGI was 34.4 µM.

And the GI50 (UACC-257 melanoma)?
The GI50 was 17.7 µM.

What about the TGI (UACC-257 melanoma) of the same molecule?
Its TGI is 47.8 µM.

And the GI50 (OVCAR-5 ovarian)?
The GI50 was 20.2 µM.

And the TGI (OVCAR-5 ovarian)?
Its TGI is 55.3 µM.

And the GI50 (UACC-62 melanoma)?
The GI50 was 25.9 µM.

What about the TGI (UACC-62 melanoma) of the same molecule?
The TGI was 70.3 µM.

What about the GI50 (MDA-MB-435 melanoma) of the same molecule?
Its GI50 is 21.3 µM.

What about the TGI (MDA-MB-435 melanoma) of the same molecule?
The TGI was 51.4 µM.

What about the GI50 (SN12C renal) of the same molecule?
Its GI50 is 27.7 µM.

What about the TGI (SN12C renal) of the same molecule?
The TGI was 89.3 µM.

And the GI50 (HT29 colon)?
The GI50 was 26 µM.

What about the TGI (HT29 colon) of the same molecule?
The TGI was 67.6 µM.

And the GI50 (KM12 colon)?
Its GI50 is 4.33 µM.

And the TGI (KM12 colon)?
The TGI was 52.9 µM.

What about the GI50 (NCI/ADR-RES ovarian) of the same molecule?
The GI50 was 31.9 µM.

What about the TGI (NCI/ADR-RES ovarian) of the same molecule?
Its TGI is > 100 µM.

And the GI50 (NCI-H460 NSCLC)?
Its GI50 is 17.6 µM.

What about the TGI (NCI-H460 NSCLC) of the same molecule?
The TGI was 34.2 µM.

And the GI50 (PC-3 prostate)?
Its GI50 is 24.6 µM.

What about the TGI (PC-3 prostate) of the same molecule?
Its TGI is 81.9 µM.

And the GI50 (DU-145 prostate)?
The GI50 was 35.4 µM.

And the TGI (DU-145 prostate)?
Its TGI is > 100 µM.

What about the GI50 (M14 melanoma) of the same molecule?
Its GI50 is 15.1 µM.

And the TGI (M14 melanoma)?
Its TGI is 33.9 µM.

And the GI50 (EKVX NSCLC)?
Its GI50 is 17.6 µM.

And the TGI (EKVX NSCLC)?
The TGI was 52.7 µM.

And the GI50 (MCF7 breast)?
The GI50 was 39.9 µM.

And the TGI (MCF7 breast)?
The TGI was > 100 µM.

What about the GI50 (MDA-MB-468 breast) of the same molecule?
Its GI50 is 16.3 µM.

And the TGI (MDA-MB-468 breast)?
The TGI was 32.6 µM.

What about the GI50 (SNB-75 CNS) of the same molecule?
Its GI50 is 11.7 µM.

What about the TGI (SNB-75 CNS) of the same molecule?
Its TGI is > 100 µM.

What about the GI50 (HCC-2998 colon) of the same molecule?
The GI50 was 24.1 µM.

What about the TGI (HCC-2998 colon) of the same molecule?
Its TGI is 75.3 µM.

And the GI50 (SW-620 colon)?
Its GI50 is 19.6 µM.

What about the TGI (SW-620 colon) of the same molecule?
Its TGI is 41.4 µM.

And the GI50 (SR leukemia)?
The GI50 was 19.1 µM.

What about the TGI (SR leukemia) of the same molecule?
The TGI was 33.3 µM.

And the GI50 (COLO 205 colon)?
The GI50 was 22.8 µM.

What about the TGI (COLO 205 colon) of the same molecule?
Its TGI is 38.7 µM.

What about the GI50 (MALME-3M melanoma) of the same molecule?
Its GI50 is 5.47 µM.

And the TGI (MALME-3M melanoma)?
The TGI was 23.1 µM.

What about the GI50 (TK-10 renal) of the same molecule?
The GI50 was 23.2 µM.

And the TGI (TK-10 renal)?
The TGI was 59.3 µM.

And the GI50 (RXF 393 renal)?
Its GI50 is 56 µM.

What about the TGI (RXF 393 renal) of the same molecule?
Its TGI is > 100 µM.

And the GI50 (BT-549 breast)?
The GI50 was 18 µM.

What about the TGI (BT-549 breast) of the same molecule?
Its TGI is 42.3 µM.

What about the GI50 (SK-MEL-2 melanoma) of the same molecule?
Its GI50 is 24 µM.

What about the TGI (SK-MEL-2 melanoma) of the same molecule?
Its TGI is 41.7 µM.

What about the GI50 (U251 glioblastoma) of the same molecule?
Its GI50 is 35 µM.

What about the TGI (U251 glioblastoma) of the same molecule?
Its TGI is > 100 µM.

What about the GI50 (HOP-62 NSCLC) of the same molecule?
Its GI50 is 42.4 µM.

What about the TGI (HOP-62 NSCLC) of the same molecule?
The TGI was > 100 µM.

What about the GI50 (HOP-92 NSCLC) of the same molecule?
Its GI50 is 19.8 µM.

What about the TGI (HOP-92 NSCLC) of the same molecule?
The TGI was 43.3 µM.

What about the GI50 (MDA-MB-231 breast) of the same molecule?
Its GI50 is 16.5 µM.

And the TGI (MDA-MB-231 breast)?
The TGI was 53 µM.

And the GI50 (A549 NSCLC)?
The GI50 was 29.2 µM.

What about the TGI (A549 NSCLC) of the same molecule?
The TGI was 84.7 µM.

What about the GI50 (IGROV1 ovarian) of the same molecule?
Its GI50 is 25.6 µM.

What about the TGI (IGROV1 ovarian) of the same molecule?
Its TGI is 86.5 µM.

What about the GI50 (SK-OV-3 ovarian) of the same molecule?
The GI50 was 14.3 µM.

What about the TGI (SK-OV-3 ovarian) of the same molecule?
The TGI was 38.7 µM.

And the GI50 (SF-295 CNS)?
The GI50 was > 100 µM.

And the TGI (SF-295 CNS)?
The TGI was > 100 µM.

What about the GI50 (T-47D breast) of the same molecule?
The GI50 was 53.7 µM.

And the TGI (T-47D breast)?
The TGI was > 100 µM.

What about the GI50 (HCT-15 colon) of the same molecule?
Its GI50 is 25.3 µM.

What about the TGI (HCT-15 colon) of the same molecule?
The TGI was 59.6 µM.

What about the GI50 (CAKI-1 renal) of the same molecule?
The GI50 was 15.1 µM.

And the TGI (CAKI-1 renal)?
Its TGI is 40.3 µM.

What about the GI50 (MOLT-4 leukemia) of the same molecule?
The GI50 was 16.3 µM.

What about the TGI (MOLT-4 leukemia) of the same molecule?
The TGI was 30.3 µM.

And the GI50 (SNB-19 CNS)?
The GI50 was 61.7 µM.

What about the TGI (SNB-19 CNS) of the same molecule?
Its TGI is > 100 µM.

And the GI50 (CCRF-CEM leukemia)?
The GI50 was 18.1 µM.

What about the TGI (CCRF-CEM leukemia) of the same molecule?
The TGI was 34.4 µM.

And the GI50 (RPMI-8226 leukemia)?
The GI50 was 16.2 µM.

What about the TGI (RPMI-8226 leukemia) of the same molecule?
Its TGI is 30.5 µM.

What about the GI50 (NCI-H23 lung) of the same molecule?
The GI50 was 16.6 µM.

And the TGI (NCI-H23 lung)?
The TGI was 40.1 µM.

And the GI50 (NCI-H522 lung)?
The GI50 was 21.2 µM.

And the TGI (NCI-H522 lung)?
The TGI was 62.1 µM.

What about the GI50 (HL-60(TB) leukemia) of the same molecule?
Its GI50 is 23.9 µM.

And the TGI (HL-60(TB) leukemia)?
Its TGI is 39.2 µM.

And the GI50 (SF-268 CNS)?
The GI50 was 24.5 µM.

And the TGI (SF-268 CNS)?
The TGI was 73.9 µM.

And the GI50 (SF-539 CNS)?
Its GI50 is 13.1 µM.

And the TGI (SF-539 CNS)?
The TGI was 45.4 µM.

And the GI50 (OVCAR-8 ovarian)?
Its GI50 is 32 µM.

What about the TGI (OVCAR-8 ovarian) of the same molecule?
The TGI was > 100 µM.

What about the GI50 (A498 renal) of the same molecule?
Its GI50 is 29 µM.

What about the TGI (A498 renal) of the same molecule?
The TGI was > 100 µM.

What about the GI50 (786-0 renal) of the same molecule?
Its GI50 is 52 µM.

What about the TGI (786-0 renal) of the same molecule?
The TGI was > 100 µM.

And the GI50 (OVCAR-3 ovarian)?
The GI50 was 27.4 µM.

And the TGI (OVCAR-3 ovarian)?
The TGI was 89 µM.

What about the GI50 (ACHN renal) of the same molecule?
The GI50 was 24.6 µM.

And the TGI (ACHN renal)?
The TGI was 68.4 µM.

What about the GI50 (OVCAR-4 ovarian) of the same molecule?
The GI50 was 22.6 µM.

What about the TGI (OVCAR-4 ovarian) of the same molecule?
Its TGI is > 100 µM.

And the GI50 (HS 578T breast)?
The GI50 was 22.1 µM.

And the TGI (HS 578T breast)?
Its TGI is 78.7 µM.

What about the GI50 (SK-MEL-5 melanoma) of the same molecule?
The GI50 was 17.2 µM.

What about the TGI (SK-MEL-5 melanoma) of the same molecule?
Its TGI is 36 µM.

What about the GI50 (NCI-H322M lung) of the same molecule?
Its GI50 is 38.4 µM.

What about the TGI (NCI-H322M lung) of the same molecule?
Its TGI is > 100 µM.
